Source: patent US8642609B2, “Modulators of ATP-binding cassette transporters” (Vertex Pharmaceuticals Incorporated, priority 2003, dated 2014)

Target: T1, ΔF508-CFTR (Homo sapiens, UniProt P13569, DEL508-508)
T1 construct: expressed in transfected cells
Assay: Membrane potential optical assay (FRET/VIPR), identification of correction compounds
Format: cell-based
Source text: I) Membrane Potential Optical Methods for Assaying ΔF508-CFTR Modulation Properties of Compounds
The optical membrane potential assay utilized voltage-sensitive FRET sensors described by Gonzalez and Tsien (See, Gonzalez, J. E. and R. Y. Tsien (1995) “Voltage sensing by fluorescence resonance energy transfer in single cells” Biophys J 69(4): 1272-80, and Gonzalez, J. E. and R. Y. Tsien (1997) “Improved indicators of cell membrane potential that use fluorescence resonance energy transfer” Chem Biol 4(4): 269-77) in combination with instrumentation for measuring fluorescence changes such as the Voltage/Ion Probe Reader (VIPR) (See, Gonzalez, J. E., K. Oades, et al. (1999) “Cell-based assays and instrumentation for screening ion-channel targets” Drug Discov Today 4(9): 431-439).
These voltage sensitive assays are based on the change in fluorescence resonant energy transfer (FRET) between the membrane-soluble, voltage-sensitive dye, DiSBAC2(3), and a fluorescent phospholipid, CC2-DMPE, which is attached to the outer leaflet of the plasma membrane and acts as a FRET donor. Changes in membrane potential (Vm) cause the negatively charged DiSBAC2(3) to redistribute across the plasma membrane and the amount of energy transfer from CC2-DMPE changes accordingly. The changes in fluorescence emission were monitored using VIPR™ II, which is an integrated liquid handler and fluorescent detector designed to conduct cell-based screens in 96- or 384-well microtiter plates.
Identification of Correction Compounds
To identify small molecules that correct the trafficking defect associated with ΔF508-CFTR; a single-addition HTS assay format was developed. The cells were incubated in serum-free medium for 16 hrs at 37° C. in the presence or absence (negative control) of test compound. As a positive control, cells plated in 384-well plates were incubated for 16 hrs at 27° C. to “temperature-correct” ΔF508-CFTR. The cells were subsequently rinsed 3× with Krebs Ringers solution and loaded with the voltage-sensitive dyes. To activate ΔF508-CFTR, 10 μM forskolin and the CFTR potentiator, genistein (20 μM), were added along with Cl^−-free medium to each well. The addition of Cl^−-free medium promoted Cl^− efflux in response to ΔF508-CFTR activation and the resulting membrane depolarization was optically monitored using the FRET-based voltage-sensor dyes.
NIH3T3 mouse fibroblasts stably expressing ΔF508-CFTR are used for optical measurements of membrane potential. The cells are maintained at 37° C. in 5% CO2 and 90% humidity in Dulbecco's modified Eagle's medium supplemented with 2 mM glutamine, 10% fetal bovine serum, 1×NEAA, β-ME, 1× pen/strep, and 25 mM HEPES in 175 cm^2 culture flasks. For all optical assays, the cells were seeded at 30,000/well in 384-well matrigel-coated plates and cultured for 2 hrs at 37° C. before culturing at 27° C. for 24 hrs. for the potentiator assay. For the correction assays, the cells are cultured at 27° C. or 37° C. with and without compounds for 16-24 hours B) Electrophysiological Assays for assaying ΔF508-CFTR modulation properties of compounds

T1 sequence (P13569 with tags, fused parts or gaps DEL508-508): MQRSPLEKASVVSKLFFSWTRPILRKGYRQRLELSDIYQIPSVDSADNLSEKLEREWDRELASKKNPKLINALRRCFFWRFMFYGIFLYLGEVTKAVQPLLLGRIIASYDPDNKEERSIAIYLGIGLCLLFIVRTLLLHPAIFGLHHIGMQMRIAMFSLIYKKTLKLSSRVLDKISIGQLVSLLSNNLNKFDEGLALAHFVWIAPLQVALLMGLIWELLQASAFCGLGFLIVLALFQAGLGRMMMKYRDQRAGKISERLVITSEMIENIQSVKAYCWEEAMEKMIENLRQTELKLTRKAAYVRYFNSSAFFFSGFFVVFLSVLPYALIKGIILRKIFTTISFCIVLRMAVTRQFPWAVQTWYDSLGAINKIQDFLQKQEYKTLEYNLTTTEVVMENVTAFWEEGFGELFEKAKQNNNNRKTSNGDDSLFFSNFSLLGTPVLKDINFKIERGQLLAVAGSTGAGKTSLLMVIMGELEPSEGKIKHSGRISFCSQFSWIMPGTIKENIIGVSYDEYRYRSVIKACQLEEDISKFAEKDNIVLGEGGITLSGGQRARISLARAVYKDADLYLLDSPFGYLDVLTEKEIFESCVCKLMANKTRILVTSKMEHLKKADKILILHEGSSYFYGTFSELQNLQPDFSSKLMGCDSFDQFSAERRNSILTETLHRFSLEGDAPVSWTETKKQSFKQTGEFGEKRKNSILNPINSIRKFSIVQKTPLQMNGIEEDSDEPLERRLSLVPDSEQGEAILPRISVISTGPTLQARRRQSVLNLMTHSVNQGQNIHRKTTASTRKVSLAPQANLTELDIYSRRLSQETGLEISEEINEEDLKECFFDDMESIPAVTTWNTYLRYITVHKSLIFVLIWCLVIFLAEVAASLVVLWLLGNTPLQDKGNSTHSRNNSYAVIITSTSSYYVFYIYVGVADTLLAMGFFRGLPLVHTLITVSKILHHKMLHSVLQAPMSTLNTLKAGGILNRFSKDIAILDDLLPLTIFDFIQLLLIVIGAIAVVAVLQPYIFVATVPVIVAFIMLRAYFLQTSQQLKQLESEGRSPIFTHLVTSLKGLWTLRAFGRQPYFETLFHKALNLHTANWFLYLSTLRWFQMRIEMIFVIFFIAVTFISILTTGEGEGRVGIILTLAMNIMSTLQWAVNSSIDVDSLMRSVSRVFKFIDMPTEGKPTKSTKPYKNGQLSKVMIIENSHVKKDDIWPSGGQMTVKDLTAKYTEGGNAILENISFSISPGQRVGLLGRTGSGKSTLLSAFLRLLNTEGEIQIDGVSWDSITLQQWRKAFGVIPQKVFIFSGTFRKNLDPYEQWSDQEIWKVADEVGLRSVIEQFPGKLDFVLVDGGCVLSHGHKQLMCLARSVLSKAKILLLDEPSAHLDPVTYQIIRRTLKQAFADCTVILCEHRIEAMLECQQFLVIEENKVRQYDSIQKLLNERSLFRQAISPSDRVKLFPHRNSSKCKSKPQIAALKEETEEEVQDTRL

| EC50 | Emax (relative efficacy) | % Efficacy (relative efficacy) | SMILES |
| --- | --- | --- | --- |
| 10 to 25 µM | < 25% | – | CC(c1nc2cccc(Cl)c2c(=O)n1C)N1CCN(S(=O)(=O)c2ccc(Cl)cc2)CC1 (stereo not shown) [compound 104] |
| < 10 µM | > 100% | – | COc1ccc(S(=O)(=O)N2CCN(C(C)c3nc(OC(C)(C)C)c4ccccc4n3)CC2)cc1 (stereo not shown) [compound 311] |
| 25 to 60 µM | < 25% | – | CCc1nc(N(C)C)c2ccccc2n1 [compound 159] |
| 25 to 60 µM | < 25% | – | COc1ccc(S(=O)(=O)NC2CCN(C(C)c3nc4ccccc4c(=O)n3C)C2)cc1 (stereo not shown) [compound 161] |
| 10 to 25 µM | < 25% | – | COc1ccc(S(=O)(=O)N2CCN(C(C)c3nc4cccc(Cl)c4c(=O)n3C)CC2)cc1 (stereo not shown) [compound 106] |
| 25 to 60 µM | 25 to 100% | – | CC(c1nc2ccccc2c(=O)n1C)N1CCN(S(=O)(=O)c2ccccc2F)CC1 (stereo not shown) [compound 253] |
| 10 to 25 µM | 25 to 100% | – | CC(c1nc2ccc(Cl)cc2c(=O)n1C)N1CCN(C(=O)c2ccc(Cl)cc2)CC1 (stereo not shown) [compound 40] |
| < 10 µM | 25 to 100% | – | COc1ccc(S(=O)(=O)N2CCN(C(C)c3nc(NC4CCCCC4)c4ccccc4n3)CC2)cc1 (stereo not shown) [compound 304] |
| 25 to 60 µM | 25 to 100% | – | CC(NCCCNS(=O)(=O)c1ccc(Cl)cc1)c1nc2ccccc2c(=O)n1C (stereo not shown) [compound 173] |
| 25 to 60 µM | 25 to 100% | – | CCNc1nc(C(C)N2CCN(S(=O)(=O)c3ccc(OC)cc3)CC2)nc2ccccc12 (stereo not shown) [compound 194] |
| 25 to 60 µM | < 25% | – | CNCCNC(C)c1nc2ccccc2c(=O)n1C (stereo not shown) [compound 182] |
| < 10 µM | 25 to 100% | – | CC(c1nc2cc(Cl)ccc2c(=O)n1C)N1CCN(S(=O)(=O)c2ccc(OC(F)(F)F)cc2)CC1 (stereo not shown) [compound 99] |
| 10 to 25 µM | 25 to 100% | – | COc1ccc(S(=O)(=O)N2CCN(C(C)c3nccc(OC4CCCC4)n3)CC2)cc1 (stereo not shown) [compound 382] |
| 25 to 60 µM | 25 to 100% | – | CC(NC1CCN(S(=O)(=O)c2ccc(Br)cc2)C1)c1nc2ccccc2c(=O)n1C (stereo not shown) [compound 226] |
| 25 to 60 µM | < 25% | – | CC(c1nc2ccccc2c(=O)n1C)N1CCC(N)CC1 (stereo not shown) [compound 180] |
| 25 to 60 µM | 25 to 100% | – | CC(=O)Nc1nc(C)c(S(=O)(=O)N2CCN(C(C)c3nc4ccccc4c(=O)n3C)CC2)s1 (stereo not shown) [compound 243] |
| 25 to 60 µM | 25 to 100% | – | CC(c1nc(N2CCOCC2)c2ccccc2n1)N1CCN(S(=O)(=O)c2ccc(Cl)cc2)CC1 (stereo not shown) [compound 236] |
| 10 to 25 µM | 25 to 100% | – | CC(c1nc2cc(Cl)ccc2c(=O)n1C)N1CCN(C(=O)c2cccc(C(F)(F)F)c2)CC1 (stereo not shown) [compound 101] |
| 10 to 25 µM | < 25% | – | CC(c1nc2ccccc2c(=O)n1C)N1CCN(C(=O)c2ccc(Br)cc2)CC1 (stereo not shown) [compound 55] |
| 10 to 25 µM | 25 to 100% | – | Cc1cccc(C(=O)N2CCN(C(C)c3nc4cc(Cl)ccc4c(=O)n3C)CC2)c1 (stereo not shown) [compound 119] |
| < 10 µM | > 100% | – | COc1ccc(S(=O)(=O)N2CCN(C(C)c3nc(N4CCCCC4)c4ccccc4n3)CC2)cc1 (stereo not shown) [compound 302] |
| < 10 µM | > 100% | – | CCOC(=O)c1cnc(C(C)N2CCN(S(=O)(=O)c3ccc(OC)cc3)CC2)nc1OC1CCCC1 (stereo not shown) [compound 362] |
| 25 to 60 µM | < 25% | – | COC(=O)c1sccc1S(=O)(=O)N1CCN(C(C)c2nc3ccccc3c(=O)n2C)CC1 (stereo not shown) [compound 256] |
| < 10 µM | 25 to 100% | – | CCCn1c(C(C)N2CCN(S(=O)(=O)c3ccc4ccccc4c3)CC2)nc2ccccc2c1=O (stereo not shown) [compound 47] |
| 25 to 60 µM | < 25% | – | CC(c1nc2ccccc2c(=O)n1C)N1CCN(S(=O)(=O)N(C)C)CC1 (stereo not shown) [compound 292] |
| 25 to 60 µM | < 25% | – | COc1ccc(NC(=O)N2CCN(C(C)c3nc4ccccc4c(=O)n3C)CC2)c(OC)c1 (stereo not shown) [compound 8] |
| 25 to 60 µM | > 100% | – | CC(c1nc2ccc(-c3nnn[nH]3)cc2c(=O)n1C)N1CCN(S(=O)(=O)c2ccc(Cl)cc2)CC1 (stereo not shown) [compound 154] |

| EC50 | Emax (relative efficacy) | % Efficacy (relative efficacy) | SMILES |
| --- | --- | --- | --- |
| < 10 µM | > 100% | – | C[C@@H](c1nc(N2CCCCC2)c2ccccc2n1)N1CCN(S(=O)(=O)c2ccc(Cl)cc2)CC1 [compound 380] |
| < 10 µM | 25 to 100% | – | COc1ccc(S(=O)(=O)N2CCN(C(C)c3nc(C(C)C)c4ccccc4n3)CC2)cc1 (stereo not shown) [compound 310] |
| 25 to 60 µM | 25 to 100% | – | CC(c1nc2ccccc2c(=O)n1C)N1CCN(C(=O)c2ccc(Cl)cc2)CC1 (stereo not shown) [compound 53] |
| 25 to 60 µM | < 25% | – | CC(c1nc2ccccc2c(=O)n1C)N1CCN(S(=O)(=O)c2ccc(C(N)=O)cc2)CC1 (stereo not shown) [compound 291] |
| < 10 µM | > 100% | – | CCOC(=O)C1CCN(c2nc(C(C)N3CCN(S(=O)(=O)c4ccc(OC)cc4)CC3)nc3ccccc23)CC1 (stereo not shown) [compound 322] |
| 25 to 60 µM | < 25% | – | CCCOc1nc(CC)nc2ccccc12 [compound 158] |
| < 10 µM | > 100% | – | COc1ccc(S(=O)(=O)N2CCN(C(C)c3nc(NC4CCCC4)c4ccccc4n3)CC2)cc1 (stereo not shown) [compound 303] |
| < 10 µM | > 100% | – | COc1ccc(S(=O)(=O)N2CCN(C(C)c3ncc(Br)c(OC4CCCC4)n3)CC2)cc1 (stereo not shown) [compound 381] |
| < 10 µM | > 100% | – | CCCn1c(C(C)N2CCN(S(=O)(=O)c3ccc(Br)cc3)CC2)nc2ccccc2c1=O (stereo not shown) [compound 27] |
| 10 to 25 µM | 25 to 100% | – | Cc1ccccc1C(=O)N1CCN(C(C)c2nc3ccc(Cl)cc3c(=O)n2C)CC1 (stereo not shown) [compound 15] |
| 10 to 25 µM | 25 to 100% | – | COc1ccc2nc(C(C)N3CCN(S(=O)(=O)c4ccccc4)CC3)n(C)c(=O)c2c1 (stereo not shown) [compound 133] |
| 25 to 60 µM | < 25% | – | CC(c1nc2ccccc2c(=O)n1C)N1CCN(S(=O)(=O)c2ccc(-c3ccccc3)cc2)CC1 (stereo not shown) [compound 242] |
| 10 to 25 µM | > 100% | – | CCC(c1nc2ccccc2c(=O)n1C)N1CCN(S(=O)(=O)c2ccc(OC)cc2)CC1 (stereo not shown) [compound 337] |
| 25 to 60 µM | < 25% | – | CC(c1nc2ccccc2c(=O)n1C)N1CCN(S(=O)(=O)c2cccc3nonc23)CC1 (stereo not shown) [compound 264] |
| 25 to 60 µM | 25 to 100% | – | COc1ccc(S(=O)(=O)N2CCN(C(C)c3nc(OCCN(C)C)c4ccccc4n3)CC2)cc1 (stereo not shown) [compound 301] |
| 10 to 25 µM | 25 to 100% | – | CCCn1c(C(C)N2CCN(S(=O)(=O)c3ccccc3)CC2)nc2ccccc2c1=O (stereo not shown) [compound 19] |
| 25 to 60 µM | 25 to 100% | – | CCn1c(C(C)N2CCN(S(=O)(=O)c3ccc(C)cc3)CC2)nc2ccc(Cl)cc2c1=O (stereo not shown) [compound 36] |
| 25 to 60 µM | 25 to 100% | – | Cc1cccc(NC(=O)N2CCN(C(C)c3nc4ccc(Cl)cc4c(=O)n3C)CC2C)c1 (stereo not shown) [compound 1] |
| 25 to 60 µM | 25 to 100% | – | CC(c1nc2ccccc2c(=O)n1C)N1CCN(S(=O)(=O)c2ccc(-c3cc(C(F)(F)F)on3)s2)CC1 (stereo not shown) [compound 261] |
| 10 to 25 µM | 25 to 100% | – | Cc1ccc(S(=O)(=O)N2CCN(C(C)c3nc4ccccc4c(=O)n3C)CC2)cc1 (stereo not shown) [compound 11] |
| 25 to 60 µM | < 25% | – | CC(c1nc2ccccc2c(=O)n1C)N1CCN(S(=O)(=O)c2ccc(Oc3ccccc3)cc2)CC1 (stereo not shown) [compound 255] |
| 10 to 25 µM | 25 to 100% | – | CC(c1nc2ccccc2c(=O)n1C)N1CCN(S(=O)(=O)c2cccc3ccccc23)CC1 (stereo not shown) [compound 12] |
| 25 to 60 µM | 25 to 100% | – | CC(c1ncc2ccccc2n1)N1CCN(S(=O)(=O)c2ccc(Br)cc2)CC1 (stereo not shown) [compound 313] |
| 10 to 25 µM | > 100% | – | COc1ccc(S(=O)(=O)N2CCN(Cc3nc(N4CCCCC4)c4ccccc4n3)CC2)cc1 [compound 384] |
| 10 to 25 µM | – | ++ (“++” means between 25% to 100%) | COc1ccc(S(=O)(=O)N2CCN(C(C)c3nc(OC4CCCC4)c4ccccc4n3)CC2)cc1 (stereo not shown) [compound 397] |
| < 10 µM | > 100% | – | CCCn1c(C(C)N2CCN(S(=O)(=O)c3ccc(Cl)cc3)CC2)nc2ccccc2c1=O (stereo not shown) [compound 26] |
